Assay results: ChEMBL document CHEMBL5728485, “Biaryloxy derivatives as TTX-S blockers” (2021)

The compounds below were run against Sodium channel protein type 9 subunit alpha (Homo sapiens, UniProt Q15858) (assay: EFS-FRET Assay: This screen is used to determine the effects of compounds on human Nav1.7 channels, utilizing electrical field stimulation (EFS) system in 96-well plate format on FDSS (Hamamatsu Photonics) platform. The changes of membrane potential are monitored with FRET dye pair, DiSBAC2(3) and PTS 18.).
Sequence of Sodium channel protein type 9 subunit alpha (Q15858 whole entry): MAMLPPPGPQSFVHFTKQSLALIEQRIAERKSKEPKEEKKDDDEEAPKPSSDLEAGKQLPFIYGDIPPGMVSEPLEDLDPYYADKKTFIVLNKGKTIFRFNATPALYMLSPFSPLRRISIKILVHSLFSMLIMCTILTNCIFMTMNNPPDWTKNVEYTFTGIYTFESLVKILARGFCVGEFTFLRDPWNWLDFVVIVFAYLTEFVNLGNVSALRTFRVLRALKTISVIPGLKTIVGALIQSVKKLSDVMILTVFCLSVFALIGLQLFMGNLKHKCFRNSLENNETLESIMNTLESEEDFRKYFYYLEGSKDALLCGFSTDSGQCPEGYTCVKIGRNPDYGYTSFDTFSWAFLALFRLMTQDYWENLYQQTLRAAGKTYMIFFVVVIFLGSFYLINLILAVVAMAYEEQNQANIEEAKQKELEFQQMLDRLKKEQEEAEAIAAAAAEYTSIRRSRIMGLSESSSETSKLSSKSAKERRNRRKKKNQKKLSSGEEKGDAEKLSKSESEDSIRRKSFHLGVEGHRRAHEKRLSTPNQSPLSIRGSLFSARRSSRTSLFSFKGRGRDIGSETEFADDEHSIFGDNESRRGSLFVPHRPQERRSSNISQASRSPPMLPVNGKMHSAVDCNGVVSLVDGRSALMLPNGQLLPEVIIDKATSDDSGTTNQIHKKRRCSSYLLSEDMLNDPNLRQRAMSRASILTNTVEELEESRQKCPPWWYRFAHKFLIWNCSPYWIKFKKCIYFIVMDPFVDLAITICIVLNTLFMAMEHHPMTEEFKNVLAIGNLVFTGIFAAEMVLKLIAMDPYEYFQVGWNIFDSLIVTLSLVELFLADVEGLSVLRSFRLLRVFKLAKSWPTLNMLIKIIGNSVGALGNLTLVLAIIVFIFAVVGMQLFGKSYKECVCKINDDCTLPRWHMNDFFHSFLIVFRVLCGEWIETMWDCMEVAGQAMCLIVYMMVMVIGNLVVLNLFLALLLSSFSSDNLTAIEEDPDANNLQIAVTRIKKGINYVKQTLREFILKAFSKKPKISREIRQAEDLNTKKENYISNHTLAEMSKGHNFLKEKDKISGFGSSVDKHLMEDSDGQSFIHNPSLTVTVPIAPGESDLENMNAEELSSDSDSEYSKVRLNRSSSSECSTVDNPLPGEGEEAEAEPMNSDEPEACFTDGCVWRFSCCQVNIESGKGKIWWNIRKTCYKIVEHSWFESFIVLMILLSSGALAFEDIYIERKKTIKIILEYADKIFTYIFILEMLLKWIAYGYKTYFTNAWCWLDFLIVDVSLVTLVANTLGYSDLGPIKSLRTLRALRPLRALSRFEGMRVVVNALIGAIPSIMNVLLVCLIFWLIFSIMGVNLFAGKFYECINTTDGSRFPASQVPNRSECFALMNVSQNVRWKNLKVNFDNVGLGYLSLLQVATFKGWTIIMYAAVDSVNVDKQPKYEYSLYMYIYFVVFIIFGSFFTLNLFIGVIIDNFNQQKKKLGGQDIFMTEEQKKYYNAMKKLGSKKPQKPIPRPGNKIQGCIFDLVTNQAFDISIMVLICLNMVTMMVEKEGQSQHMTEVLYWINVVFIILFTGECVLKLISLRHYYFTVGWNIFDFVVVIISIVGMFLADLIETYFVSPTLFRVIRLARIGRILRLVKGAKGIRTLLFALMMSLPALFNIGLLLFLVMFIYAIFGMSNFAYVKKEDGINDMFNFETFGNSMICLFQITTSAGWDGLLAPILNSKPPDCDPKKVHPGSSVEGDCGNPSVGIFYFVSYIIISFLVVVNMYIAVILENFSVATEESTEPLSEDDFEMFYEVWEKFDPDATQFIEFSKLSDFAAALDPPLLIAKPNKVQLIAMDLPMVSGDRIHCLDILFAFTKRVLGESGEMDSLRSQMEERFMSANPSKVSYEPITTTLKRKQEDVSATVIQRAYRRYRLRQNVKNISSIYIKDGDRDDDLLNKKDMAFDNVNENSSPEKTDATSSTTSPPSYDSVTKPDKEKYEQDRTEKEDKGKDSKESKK

Row | Compound | IC50
1 | CS(=O)(=O)NC(=O)c1ccc(COc2cc(-c3cccnc3)cc(-c3ccc(OCC4CC4)nc3)c2)cc1 | < 500 nM
2 | Cc1cc(OCC2CCC2)cnc1-c1cccc(OCc2ccc(C(=O)NS(C)(=O)=O)cc2)c1 | < 500 nM
3 | Cc1nc(OCC2CC2)ncc1-c1cccc(OCc2ccc(C(=O)NS(C)(=O)=O)cc2F)c1 | < 500 nM
4 | O=C(NS(=O)(=O)C1CC1)c1ccc(COc2cccc(-c3ccc(OCC4CCOCC4)nc3)c2)cc1 | < 500 nM
5 | CN(C)C(=O)c1cc(OCC2CC2)cc(-c2cc(F)cc(OCc3ccc(C(=O)NS(C)(=O)=O)cc3F)c2)c1 | < 500 nM
6 | CNC(=O)c1cc(-c2cccc(OCc3ccc(C(=O)NS(C)(=O)=O)cc3F)c2)ccc1OCC1CC1 | < 500 nM
7 | CS(=O)(=O)NC(=O)c1cc(Cl)c(COc2cccc(-c3ccc(OCC4CC4)nc3)c2)cc1F | < 500 nM
8 | Cc1cc(OCc2ccc(C(=O)NS(C)(=O)=O)cc2F)cc(-c2ccc(OCC3CC3)nc2)c1 | < 500 nM
9 | CS(=O)(=O)NC(=O)c1ccc(COc2cc(F)cc(-c3ccc(OCC4CC4)nc3)c2)cc1 | < 500 nM
10 | O=C(NS(=O)(=O)C(F)(F)F)c1ccc(COc2cccc(-c3ccc(OCC4CC4)nc3)c2)cc1 | < 500 nM
11 | CS(=O)(=O)NC(=O)c1ccc(COc2cccc(-c3ccn(CC4CC4)n3)c2)c(F)c1 | < 500 nM
12 | CS(=O)(=O)NC(=O)c1ccc(COc2ccc(Cl)c(-c3ccc(OCC4CC4)nc3)c2)c(F)c1 | < 500 nM
13 | CCOC(=O)N1CCC(COc2ccc(-c3cccc(OCc4ccc(C(=O)NS(C)(=O)=O)cc4)c3)cn2)CC1 | < 500 nM
14 | CS(=O)(=O)NC(=O)c1ccc(COc2cccc(-c3ncc(OCC4CC4)cc3F)c2)cc1 | < 500 nM
15 | CS(=O)(=O)NC(=O)c1ccc(COc2cc(F)cc(-c3ccc(OCC4CC4)nc3)c2)nc1 | < 500 nM
16 | Cc1cc(OCC2CCC2)cnc1-c1cc(F)cc(OCc2ccc(C(=O)NS(C)(=O)=O)cc2)c1 | < 500 nM

Row | Compound | IC50
17 | Cc1c(OCC2CC2)ncnc1-c1cc(F)cc(OCc2ccc(C(=O)NS(C)(=O)=O)cc2)c1 | < 500 nM
18 | CS(=O)(=O)NC(=O)c1ccc(COc2cccc(-c3ncc(OCC4CC4)cc3Cl)c2)cc1 | < 500 nM
19 | CS(=O)(=O)NC(=O)c1ccc(COc2cccc(-c3cc(OCC4CC4)ccn3)c2)c(F)c1 | < 500 nM
20 | Cc1c(OCC2CC2)ncnc1-c1cccc(OCc2ccc(C(=O)NS(C)(=O)=O)cc2F)c1 | < 500 nM
21 | CS(=O)(=O)NC(=O)c1ccc(COc2cccc(-c3ccc(OCC4CCC4)nc3CO)c2)cc1 | < 500 nM
22 | CS(=O)(=O)NC(=O)c1ccc(COc2cccc(-c3ccc(OCC4CCOCC4)nc3)c2)c(F)c1 | < 500 nM
23 | Cc1nc(OCC2CC2)ccc1-c1cc(F)cc(OCc2ccc(C(=O)NS(C)(=O)=O)cc2)c1 | < 500 nM
24 | O=C(NS(=O)(=O)C1CC1)c1ccc(COc2ccc(F)c(-c3ccc(OCC4CC4)nc3)c2)cc1 | < 500 nM
25 | CS(=O)(=O)NC(=O)c1ccc(COc2cccc(-c3ccc(OCC4CC4)nc3)c2F)cc1 | < 500 nM
26 | O=C(NS(=O)(=O)C1CC1)c1ccc(COc2cccc(-c3ccc(OCC4CC4)nc3)c2)c(F)c1 | < 500 nM
27 | O=C(NS(=O)(=O)C1CC1)c1cc(Cl)c(COc2cccc(-c3ccc(OCC4CC4)nc3)c2)cc1F | < 500 nM
28 | O=C(NS(=O)(=O)c1cccs1)c1ccc(COc2cccc(-c3ccc(OCC4CC4)nc3)c2)c(F)c1 | < 500 nM
29 | O=C(NS(=O)(=O)C1CC1)c1ccc(COc2ccc(F)c(-c3ccc(OCC4CC4)nc3)c2)c(F)c1 | < 500 nM
30 | CS(=O)(=O)NC(=O)c1ccc(COc2cc(F)cc(-c3cc(OCC4CC4)ncn3)c2)cc1 | < 500 nM
31 | CS(=O)(=O)NC(=O)c1ccc(COc2cccc(-c3ccc(OCC4CC4)nc3)c2)c(Cl)c1 | < 500 nM

More lines, now with the values ahead:

Row | IC50 | Compound
32 | < 500 nM | Cc1cc(OCC2CC2)ncc1-c1cccc(OCc2ccc(C(=O)NS(C)(=O)=O)cc2)c1
33 | < 500 nM | CS(=O)(=O)NC(=O)c1ccc(COc2cc(F)cc(-c3cnc(OCC4CCC4)c(CO)c3)c2)cc1
34 | < 500 nM | CS(=O)(=O)NC(=O)c1ccc(COc2cccc(-c3cnc(OCC4CC4)cn3)c2)c(F)c1
35 | < 500 nM | CS(=O)(=O)NC(=O)c1ccc(COc2cccc(-c3ccc(OCC4CCC4)nc3)c2)cc1
36 | < 500 nM | CS(=O)(=O)NC(=O)c1ccc(COc2cccc(-c3ccc(OCC4CC4)nc3)c2)c(C#N)c1
37 | < 500 nM | CS(=O)(=O)NC(=O)c1ccc(COc2cccc(-c3cc(OCC4CC4)ncn3)c2)c(F)c1
38 | < 500 nM | CS(=O)(=O)NC(=O)c1ccc(COc2cccc(-c3ccc(OCC4CCC(F)(F)CC4)nc3)c2)cc1
39 | < 500 nM | CS(=O)(=O)NC(=O)c1ccc(COc2cccc(-c3ccc(OCC4CC4)cn3)c2)c(F)c1
40 | < 500 nM | CS(=O)(=O)NC(=O)c1ccc(COc2cc(F)cc(-c3cc(OCC4CC4)ccn3)c2)cc1
41 | < 500 nM | CS(=O)(=O)NC(=O)c1ccc(COc2cc(-c3ccc(OCC4CC4)nc3)ccc2F)cc1
42 | < 500 nM | Cc1c(-c2cc(OCc3ccc(C(=O)NS(C)(=O)=O)cc3F)ccc2F)ccnc1OCC1CC1
43 | < 500 nM | CS(=O)(=O)NC(=O)c1ccc(COc2cccc(-c3cncc(OCC4CC4)n3)c2)c(F)c1
44 | < 500 nM | CC(C)S(=O)(=O)NC(=O)c1ccc(COc2cccc(-c3ccc(OCC4CC4)nc3)c2)c(F)c1
45 | < 500 nM | CS(=O)(=O)NC(=O)c1ccc(COc2cc(F)cc(-c3cccc(OCC4CC4)n3)c2)cc1
46 | < 500 nM | CS(=O)(=O)NC(=O)c1ccc(COc2cc(F)cc(-c3cc(OCC(N)=O)cc(OCC4CC4)c3)c2)c(F)c1
47 | < 500 nM | CS(=O)(=O)NC(=O)c1ccc(COc2ccc(F)c(-c3ccc(OCC4CC4)nc3)c2)c(F)c1
48 | < 500 nM | CS(=O)(=O)NC(=O)c1ccc(COc2ccc(F)c(-c3cnc(OCC4CC4)cn3)c2)c(F)c1
49 | < 500 nM | Cc1ccc(OCc2ccc(C(=O)NS(=O)(=O)C3CC3)cc2F)cc1-c1ccc(OCC2CC2)nc1
50 | < 500 nM | CN(CC1CC1)c1ncc(-c2cccc(OCc3ccc(C(=O)NS(C)(=O)=O)cc3F)c2)cn1

Row | IC50 | Compound
51 | < 500 nM | CC(C)(C)OC(=O)N1CC(COc2ccc(-c3cccc(OCc4ccc(C(=O)NS(C)(=O)=O)cc4F)c3)cn2)C1
52 | < 500 nM | CS(=O)(=O)NC(=O)c1ccc(COc2cccc(-c3cnc(OCC4CC4)cn3)c2)cc1
53 | < 500 nM | CS(=O)(=O)NC(=O)c1ccc(COc2cccc(-c3cnc(OCC4CCC4)c(CO)c3)c2)c(F)c1
54 | < 500 nM | COC1CN(C(=O)c2cc(OCC3CC3)cc(-c3cc(F)cc(OCc4ccc(C(=O)NS(C)(=O)=O)cc4F)c3)c2)C1
55 | < 500 nM | CS(=O)(=O)NC(=O)c1ccc(COc2cccc(-c3cc(OCC4CC4)ncn3)c2)cc1
56 | < 500 nM | Cc1ccc(OCc2ccc(C(=O)NS(C)(=O)=O)cc2F)cc1-c1ccc(OCC2CC2)nc1
57 | < 500 nM | Cc1c(OCC2CC2)ccnc1-c1cccc(OCc2ccc(C(=O)NS(C)(=O)=O)cc2F)c1
58 | < 500 nM | CS(=O)(=O)NC(=O)c1ccc(COc2cccc(-c3cnc(OCC4CCC4)cn3)c2)c(F)c1
59 | < 500 nM | O=C(NS(=O)(=O)c1nccs1)c1ccc(COc2cccc(-c3ccc(OCC4CC4)nc3)c2)cc1
60 | < 500 nM | CS(=O)(=O)NC(=O)c1ccc(COc2ccc(F)c(-c3ccc(OCC4CC4)nc3)c2)cc1
61 | < 500 nM | CS(=O)(=O)NC(=O)c1ccc(COc2cccc(-c3cccc(OCC4CC4)n3)c2)cc1
62 | < 500 nM | CS(=O)(=O)NC(=O)c1ccc(COc2cccc(-c3cc(OCC4CC4)ccn3)c2)cc1
63 | < 500 nM | CN(CC1CC1)c1cc(-c2cccc(OCc3ccc(C(=O)NS(C)(=O)=O)cc3F)c2)ccn1
64 | < 500 nM | O=C(NS(=O)(=O)C(F)(F)F)c1ccc(COc2cc(F)cc(-c3ccc(OCC4CC4)nc3)c2)cc1
65 | < 500 nM | CS(=O)(=O)NC(=O)c1ccc(COc2cc(F)cc(-c3ncc(OCC4CCC4)cn3)c2)cc1
66 | < 500 nM | CS(=O)(=O)NC(=O)c1ccc(COc2cccc(-c3cnc(OCC4CCC4)cn3)c2)cc1
67 | < 500 nM | O=C(NS(=O)(=O)C1CC1)c1ccc(COc2cccc(-c3ccc(OCC4CC4)nc3)c2)cc1
68 | < 500 nM | CS(=O)(=O)NC(=O)c1ccc(COc2cccc(-c3cccc(OCC4CC4)n3)c2)c(F)c1
69 | < 500 nM | CS(=O)(=O)NC(=O)c1ccc(COc2cccc(-c3ccc(OCC4CC(F)(F)C4)nc3)c2)cc1
